Measured values: ChEMBL document CHEMBL4261625, “Flexibility of small molecular CD4 mimics as HIV entry inhibitors” (Bioorg Med Chem, 2018)

Legend:
[1] = Cytotoxicity against human PM1 cells harboring CCR5 co-receptor by WST-8 assay; format: cell-based
[2] = tested on: Human immunodeficiency virus 1; experiment: Antiviral activity against HIV1 cYTA48P infected in PM1/CCR5 cells by single round assay; format: functional, organism-based; settings: Human immunodeficiency virus 1, cYTA48P
[3] = molecular target: Envelope glycoprotein gp160 (Human immunodeficiency virus 1) (UniProt Q6QLK5); experiment: Induction of conformational changes in HIV1 cYTA48P envelope glycoprotein gp120 infected in PM1/CCR5 cells assessed as mean fluorescence intensity using CD4i monoclonal antibody 4C11 at 100 uM after 15 mins by FACS analysis; format: cell-based
Sequence of Envelope glycoprotein gp160 (Human immunodeficiency virus 1) (Q6QLK5 1-814): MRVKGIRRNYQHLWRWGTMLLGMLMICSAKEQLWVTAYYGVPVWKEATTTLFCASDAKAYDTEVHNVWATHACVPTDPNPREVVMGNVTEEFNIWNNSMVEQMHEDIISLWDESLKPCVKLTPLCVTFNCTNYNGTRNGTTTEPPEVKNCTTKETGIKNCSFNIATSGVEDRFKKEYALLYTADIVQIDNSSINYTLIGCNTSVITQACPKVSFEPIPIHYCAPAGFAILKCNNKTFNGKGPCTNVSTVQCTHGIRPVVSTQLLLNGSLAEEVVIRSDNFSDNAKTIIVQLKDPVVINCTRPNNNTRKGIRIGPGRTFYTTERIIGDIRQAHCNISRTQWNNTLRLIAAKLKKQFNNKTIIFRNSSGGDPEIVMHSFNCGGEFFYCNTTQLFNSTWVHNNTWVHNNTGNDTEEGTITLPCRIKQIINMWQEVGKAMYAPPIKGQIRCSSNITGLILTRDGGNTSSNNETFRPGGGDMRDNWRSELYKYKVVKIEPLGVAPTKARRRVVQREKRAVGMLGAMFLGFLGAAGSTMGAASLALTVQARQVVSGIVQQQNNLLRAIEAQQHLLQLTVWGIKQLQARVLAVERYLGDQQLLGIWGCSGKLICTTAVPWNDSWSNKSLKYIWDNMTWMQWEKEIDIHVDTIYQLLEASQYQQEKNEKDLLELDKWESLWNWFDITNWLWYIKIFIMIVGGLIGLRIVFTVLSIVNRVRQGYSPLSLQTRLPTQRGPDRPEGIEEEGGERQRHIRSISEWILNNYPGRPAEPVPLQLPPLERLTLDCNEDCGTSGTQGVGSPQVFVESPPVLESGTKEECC

[4] = molecular target: Envelope glycoprotein gp160 (Human immunodeficiency virus 1) (UniProt Q6QLK5); experiment: Induction of conformational changes in HIV1 cYTA48P envelope glycoprotein gp120 infected in PM1/CCR5 cells assessed as mean fluorescence intensity using CD4i monoclonal antibody 4C11 at 100 uM after 15 mins by FACS analysis relative to NBD-556; format: cell-based
[5] = tested on: Human immunodeficiency virus 1; experiment: Antiviral activity against HIV1 cYTA48P infected in PM1/CCR5 cells at 10 uM by single round assay; format: functional

Row | Structure (SMILES) | CC50 [1] [µM] | IC50 [2] [µM] | Flu intensity [3] | fold change (FC) [4] | Activity [5] [%]
1 | Cn1c(C(=O)NC2CC3(CCCCC3)NC3(CCCCC3)C2)cc2cc(F)c(Cl)cc21 (centres undefined) | 29.4 | > 100 |  |  | 
2 | CCOC(=O)C1CCN(C(=O)c2cc3ccc(Cl)cc3n2C)CC1 | 78.4 | > 100 |  |  | 
3 | Cc1cc(C)c2cc(C(=O)NC3CC4(CCCCC4)NC4(CCCCC4)C3)n(C)c2c1 (centres undefined) | > 13.5 | > 100 | 7.96 | 0.17 | 
4 | CC1(C)CC(NC(=O)CNc2ccc3c(c2)OCO3)CC(C)(C)N1 |  | > 30 | 23.4 | 0.073 | 
5 | Cn1c(C(=O)NC2CC3(CCCCC3)NC3(CCCCC3)C2)cc2ccc(Cl)cc21 (centres undefined) | 33.9 | > 100 |  |  | 
6 | CC1(C)CC(NC(=O)C(=O)Nc2ccc(Cl)cc2)CC(C)(C)N1 | 70.4 | 0.63 | 8.91 |  | 
7 | Cn1c(C(=O)NC2CC(C)(C)NC(C)(C)C2)cc2c(F)c(Cl)ccc21 | 13.9 | > 100 | 6.74 |  | 32
8 | CCOC(=O)C1CCN(C(=O)c2cc3cc(F)c(Cl)cc3n2C)CC1 | 41.1 | > 100 |  |  | 
9 | CCOC(=O)C1CCN(C(=O)CNc2ccc3c(c2)OCO3)CC1 |  | > 100 | 18.5 |  | 
10 | O=C(NC1CC2(CCCCC2)NC2(CCCCC2)C1)c1cc2ccc(Cl)cc2[nH]1 (centres undefined) | 10.7 | > 100 |  |  | 11
11 | CC1(C)CC(NC(=O)CNc2ccc(Cl)cc2)CC(C)(C)N1 |  | 36.9 | 30.2 | 0.22 | 
12 | CCOC(=O)C1CCN(C(=O)CNc2ccc(Cl)cc2)CC1 |  | > 100 | 23.8 | 0.081 | 
13 | Cn1c(C(=O)NC2CC(C)(C)NC(C)(C)C2)cc2cc(Cl)ccc21 | 37.5 | > 100 | 6.65 |  | 
14 | CCOC(=O)C1CCN(C(=O)c2cc3c(F)c(Cl)ccc3[nH]2)CC1 | > 200 | > 100 | 8.24 | 0.42 | 
15 | Cc1cc(C)c2cc(C(=O)NC3CC(C)(C)NC(C)(C)C3)n(C)c2c1 | > 37.5 | > 100 | 7.61 |  | 
16 | Cn1c(C(=O)NC2CC(C)(C)NC(C)(C)C2)cc2cc(F)c(Cl)cc21 | 18.7 | > 100 |  |  | 
17 | CCOC(=O)C1CCN(C(=O)c2cc3ccc(Cl)cc3[nH]2)CC1 | 52.6 | > 100 |  |  | 
18 | CCOC(=O)C1CCN(C(=O)c2cc3c(C)cc(C)cc3n2C)CC1 | > 50.2 | > 100 | 8.11 | 0.3 | 

Row | Structure (SMILES) | CC50 [1] [µM] | IC50 [2] [µM] | Flu intensity [3] | fold change (FC) [4] | Activity [5] [%]
19 | CC1(C)CC(NC(=O)c2cc3ccc(Cl)cc3[nH]2)CC(C)(C)N1 | 37.4 | > 100 |  |  | 
20 | CCOC(=O)C1CCN(C(=O)c2cc3cc(F)c(Cl)cc3[nH]2)CC1 | 121 | > 100 |  |  | 
21 | CCOC(=O)C1CCN(C(=O)c2cc3c(F)c(Cl)ccc3n2C)CC1 | > 63.5 | > 100 | 8.63 | 0.76 | 
22 | O=C(NC1CC2(CCCCC2)NC2(CCCCC2)C1)c1cc2cc3c(cc2[nH]1)OCO3 (centres undefined) | > 100 | 1 | 36.4 | 0.36 | 
23 | O=C(CNc1ccc2c(c1)OCO2)NC1CC2(CCCCC2)NC2(CCCCC2)C1 (centres undefined) |  | 10.8 | 28.7 | 0.19 | 
24 | Cc1cc(C)c2cc(C(=O)NC3CC4(CCCCC4)NC4(CCCCC4)C3)[nH]c2c1 (centres undefined) | 9.6 | > 100 | 5.27 |  | 
25 | CC1(C)CC(NC(=O)c2cc3cc(Cl)ccc3[nH]2)CC(C)(C)N1 | 48.6 | 3.65 | 8.7 | 0.82 | 
26 | CCOC(=O)C1CCN(C(=O)c2cc3cc4c(cc3[nH]2)OCO4)CC1 |  | 63 | 26.2 | 0.13 | 
27 | Cc1cc(C)c2cc(C(=O)NC3CC(C)(C)NC(C)(C)C3)[nH]c2c1 | 60.3 | > 100 | 8.08 | 0.28 | 
28 | CCOC(=O)C1CCN(C(=O)c2cc3c(C)cc(C)cc3[nH]2)CC1 | > 200 | > 100 | 8.14 | 0.33 | 
29 | Cn1c(C(=O)NC2CC(C)(C)NC(C)(C)C2)cc2ccc(Cl)cc21 | 33.2 | > 100 |  |  | 27
30 | O=C(NC1CC2(CCCCC2)NC2(CCCCC2)C1)c1cc2cc(F)c(Cl)cc2[nH]1 (centres undefined) | 11.3 | > 100 |  |  | 
31 | CC1(C)CC(NC(=O)c2cc3cc4c(cc3[nH]2)OCO4)CC(C)(C)N1 |  | 23 | 30.7 | 0.23 | 
32 | Cn1c(C(=O)NC2CC3(CCCCC3)NC3(CCCCC3)C2)cc2c(F)c(Cl)ccc21 (centres undefined) | 12.3 | > 100 | 6.45 |  | 
33 | O=C(CNc1ccc(Cl)cc1)NC1CC2(CCCCC2)NC2(CCCCC2)C1 (centres undefined) | > 100 | 2.2 | 19.6 |  | 
34 | O=C(NC1CC2(CCCCC2)NC2(CCCCC2)C1)c1cc2c(F)c(Cl)ccc2[nH]1 (centres undefined) | 11.4 | 3.6 | 8.05 | 0.25 | 
35 | CC1(C)CC(NC(=O)c2cc3cc(F)c(Cl)cc3[nH]2)CC(C)(C)N1 | 103 | 88.7 |  |  | 
36 | CC1(C)CC(NC(=O)c2cc3c(F)c(Cl)ccc3[nH]2)CC(C)(C)N1 | 19.4 | > 10 | 8.55 | 0.68 | 32
